Measurements published in patent US12503426B2, “Synthetic derivatives of oleoyl-lysophosphatidylinositol (oleoyl-LPI) and uses thereof” (LIPOVEXA SRL, priority 2017, dated 2025).

Experiments:
[1] = tested on: colonic cells of the GI tract obtained from guinea pig; assay: Ex vivo GLP-1 biosynthesis and secretion, guinea pig GI tract cells; assay type: cell-based
Protocol: To test for this, a pregnant guinea pig was anesthetized with isoflurane and sacrificed via intra-cardial injection of pentobarbital. Colon and rectum were quickly collected and intraluminal content washed out with ice-cold HBSS. After a thorough cleansing from the faecal material, and gentle scraping of the internal mucosa, the tissue was minced into 3 to 5-millimetre pieces and resuspended into 50 ml of ice cold HBSS. Pellet was spun down and washed again in 50 ml of ice-cold HBSS. Supernatant was carefully removed, and the epithelial fragments were then resuspended for 30 minutes at 37° C. into a 5 ml solution of HEPES 25 mM, collagenase-P 1 mg/ml in HBSS, pH 7.4 at 37° C.
The tissue was then pelleted and resuspended further for about 30 to 40 additional minutes at 37° C. within a 10 ml solution of 1 mg/ml collagenase-P as above.
After the digestion, about 40 ml of pre-warmed DMEM complete media was added (FBS 10%, glucose 4.5 g/L, glutamine 4 mM, sodium pyruvate 1 mM, HEPES 25 mM, sodium bicarbonate 3.7 g/L, Pen/Strep 1× and Ciprofloxacin 10 μg/ml pH 7.4 at 37° C.). Crypts and individual cells were isolated with a […] nylon strainer, spun down at 200 g for 5 minutes, resuspended into 10 ml of DMEM complete media and plated into 20 wells of a 24-well plate coated with a 3D gel of 3 mg/ml Matrigel (BD, Biosciences, Oxford, UK). After one day of incubation at 37° C. 5% CO2 in a humidified incubator, cells were washed with 500 μl of warm HBSS, and treated with 250 μl DMEM serum free (Complete medium without FBS) additioned with KR-62436 10 μg/ml and individually the following drugs or compounds: Forskolin and IBMX (20 μM each), oleoyl-LPI, and the two oleoyl-LPI analogs and/or derivatives ps297b (prepared as described in example 13) and ps316a (prepared as described in example 22) were all tested in quadruplicate at 20 μM.
After a 2-hour long incubation at 37 C 5% CO2, the supernatants were collected on ice, and quickly stored at […]. Active GLP-1 levels (7-37 amide and 7-36) were quantified on 50 μl of supernatant with an ELISA commercial kit (EMD Millipore). DMSO was used as a negative control, the combination of Forskolin and IBMX was included as positive control activators GLP-1. GLP-1 levels measured were standardized against the DMSO control.
The EC50 levels each one of oleoyl-LPI, compound ps297b and compound ps316a were also measured in quadruplicates at the conclusion of the 2 hour incubation. Guinea pig cells obtained as described above were also incubated with […] in quadruplicates and subjected to 2-hour long incubation at 37 C 5% CO2 as described above and EC50 levels measured.

wild type mice = assay: Oral Glucose GLP-1 secretion test; assay type: in vivo; conditions: oral gavage 20 mg/kg, samples 2 minutes post glucose load, N=3
Protocol: Active GLP-1 levels were measured in samples collected 2 minutes post glucose load. N=3
In a slight variation on the above method GLP-1 measurement in mice can be carried out by Peripheral GLP-1 stimulation and measurement in C57bl/6J mice. After 6 hours of fasting, the mice are weighed, and drug volumes are calculated. […] At 2 minutes post-glucose gavage, a blood sample is collected from the submandibular vein into an EDTA coated prechilled tube containing a panel of protease inhibitors. The plasma is separated by spinning at 1,500 g for 20 minutes at 4 C. the plasma is then collected and snap frozen on dry ice and store at −20 C before proceeding with hormone quantification. For hormone quantification the samples are thawed and total GLP-1 levels are quantified, GLP1(7-36)amide+GLP-1(9-36)amide, in 20 μL of plasma with the commercial ELISA kit from Millipore EZGLP1T-36K. This method is also described in Windelov J A et al Diabetologia. […]
Mice were sampled at about 2 minutes post glucose load, 20 μl of arterial blood may be sampled in K3-EDTA and KR-62436 containing tubes to collect plasma and samples are quickly store at −80° C. Plasma samples of 4 to 6 animals may be pool together and assayed to quantify the levels of active GLP-1 (such as GLP-1 (7-36)amide) using commercially available ELISA kits. […] Active GLP-1 levels were measured in samples collected 2 minutes post glucose load. […]

NCI-H716 cells = assay: GLP-1 secretion in NCI-H716 cells, in vitro human L cells model (Examples 30-33); assay type: cell-based
Protocol: (§1) To evaluate the GLP-1 biosynthesis and secreting capabilities of the compounds of formula I in vitro using the human-derived cell line NCI-H716, 50,000 such cells were seeded per well of a 24-well plate pre-coated with a thin layer of Matrigel (0.15 mg/ml) in RPMI complete (RPMI additioned with FBS 10%, Glucose 2 g/L, Glutamine 4 mM, Sodium Bicarbonate 2 g/L, Pen/Strep 1× pH 7.4 at 37° C.) and incubated at 37° C. in humidified 5% CO2 atmosphere to induce endocrine differentiation.
After 48 hours, media was withdrawn and cells washed once with warm HBSS (Hank's balanced salt solution) and then incubated in duplicate for 2 hours with the different dilutions of the oleoyl-LPI, OEA, DMSO (as negative control), a test compound of formula I, and KR-62436 10 μg/ml, all dissolved in RPMI serum free (RPMI complete without FBS) at 37° C. in humidified 5% CO2 incubator. Supernatant were quickly collected on ice and stored at −80° C. before quantification of GLP-1 with a commercial ELISA (EMD Millipore) specific for active-GLP-1 species.
as §1, with “1×pH” for “1× pH”
After 48 hours, media was withdrawn and cells washed twice with pre-warm HBSS (Hank's balanced salt solution) and then incubated in duplicate for 2 hours with 250 μl of 20 μM of either oleoyl-LPI, DMSO (as negative control) or a test compound of formula I, and […], all dissolved in RPMI serum free (RPMI complete without FBS) at 37° C. in humidified 5% CO2 incubator. Compounds of formula I tested were ps297b, ps316a, ps318a, ps319a, ps321a and ps323.
Supernatant were quickly collected on ice and stored at −80° C. before quantification of GLP-1 with a commercial ELISA (EMD Millipore) specific for active-GLP-1 species (e.g., GLP-1 (7-36) amide) and […]).
Compounds of formula I were tested for GLP-1 secretion in NCI-H716 cells essentially as describe in examples 30 and 31 above. EC50 GLP-1 secretion readout results were standardized relative to maximum GLP-1 secretion obtained with oleoyl-LPI. EC50 readout results were rated as low GLP-1 secretion activity (0-20% of maximum GLP-1 secretion achieved with oleoyl-LPI), moderate (21-79% of maximum GLP-1 secretion achieved with oleoyl-LPI), and high GLP-1 activity (80% and more of maximum GLP-1 secretion achieved with oleoyl-LPI). Table 3 also outlines the R1, R2 and R3 substituents of the compounds of formula I.

Danio rerio larvae = assay: Zebrafish toxicity test; assay type: in vivo; conditions: two-days old larvae treated for 3 days; heartbeat, movement, teratogenicity; preliminary experiment
From the text: About two-days old Danio rerio larvae may be dechorionated and treated for about 3 days with increasing amount of any synthetic compound of formula I or salt or solvate thereof of this invention. The cardiotoxicity effect of the compound or salt or solvate may be assessed by measuring the heartbeat, the movement, and teratogenicity (hatching rate, mortality rate (LD50). The experiment may be repeated for three times or more times e.g., with about 10 larvae per concentration tested.
Two-days old Danio rerio larvae were dechorionated and treated for 3 days with increasing amount of a synthetic compound of formula I such as ps297b.

## CCCCCCCC/C=C\CCCCCCCC(=O)Nc1ccc(-c2nnn[nH]2)cc1 [ps297b]
[1]; 20 μM, 2 hours, standardized against DMSO control
  GLP-1 biosynthesis and secretion ex vivo: stimulated biosynthesis and secretion
[1]; 2 hours incubation ex vivo
  stability after incubation ex vivo: remained stable after 2 hours incubation ex vivo
[1]; Cavia porcellus, ex vivo incubation 2 hours, quadruplicates
  EC50: 30 µM
Wild type mice
  GLP-1 release (active GLP-1 levels): increasing GLP-1 release
NCI-H716 cells; 20 μM, 2 hours, normalized against DMSO vehicle control
  GLP-1 biosynthesis and secretion from NCI-H716 L cells: able to mediate GLP-1 biosynthesis and secretion
NCI-H716 cells; NCI-H716 cells, 20 μM, 2 hours
  level of GLP-1 biosynthesis and secretion compared with oleoyl-LPI: comparable to that of oleoyl-LPI
NCI-H716 cells; NCI-H716 cells, standardized relative to maximum GLP-1 secretion obtained with oleoyl-LPI
  GLP-1 secretion Activity relative to oleoyl-LPI: High (high GLP-1 activity (80% and more of maximum GLP-1 secretion achieved with oleoyl-LPI))
NCI-H716 cells; summary statement, compared with oleoyl-LPI
  activity in inducing and/or increasing secretion of GLP-1 from cells of the GI tract: equal to or higher than oleoyl-LPI
Danio rerio larvae
  concentration with no sign of toxicity: up to 200 micromolar
